Results reported in the supplement of paper PMC10307832.

Assays:
Experiment in all cases: relative viability (nuclei count vs DMSO), 5 days (fraction); higher = more cells survive
[1] = system: COR-L23
Method in brief: (§1)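 Lung cancer cell lines in 1536-well plates got either a single drug or a fixed anchor-drug dose together with five library-drug doses (not always all listed) in √10 steps, by pin tool, on the day after seeding. Nuclei were counted after 5 days, and relative viability is the treated-to-vehicle ratio of nuclei counts. Values are medians of duplicate plates.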

[2] = system: NCI-H23
Method in brief: as §1

[3] = system: NCI-H647
Method in brief: as §1

[4] = system: LC-2-ad
Method in brief: as §1

[5] = system: NCI-H1993
Method in brief: as §1

[6] = system: HOP-62
Method in brief: as §1

[7] = system: ABC-1
Method in brief: as §1

[8] = system: NCI-H520
Method in brief: as §1

[9] = system: ChaGo-K-1
Method in brief: as §1

[10] = system: NCI-H2347
Method in brief: as §1

[11] = system: HCC-44
Method in brief: as §1

[12] = system: NCI-H838
Method in brief: as §1

[13] = system: NCI-H2085
Method in brief: as §1

[14] = system: NCI-H1355
Method in brief: as §1

[15] = system: NCI-H661
Method in brief: as §1

[16] = system: CAL-12T
Method in brief: as §1

[17] = system: 201T
Method in brief: as §1

[18] = system: NCI-H1666
Method in brief: as §1

[19] = system: NCI-H322M
Method in brief: as §1

[20] = system: NCI-H2170
Method in brief: as §1

[21] = system: NCI-H2228
Method in brief: as §1

[22] = system: LCLC-103H
Method in brief: as §1

[23] = system: NCI-H1651
Method in brief: as §1

## CCCCCCCCCCCC1=C(O)C(=O)C=C(O)C1=O [Embelin] + C[C@@H](Oc1cc(-c2cnn(C3CCNCC3)c2)cnc1N)c1c(Cl)ccc(F)c1Cl [Crizotinib] (partner 1 µM)
[1]; first compound 0.08 µM
  relative viability: 0.691
[1]; first compound 0.8 µM
  relative viability: 0.762
[1]; first compound 2.53 µM
  relative viability: 0.701
[1]; first compound 8 µM
  relative viability: 0.745
[2]; first compound 0.08 µM
  relative viability: 0.554
[2]; first compound 0.8 µM
  relative viability: 0.56
[2]; first compound 2.53 µM
  relative viability: 0.55
[2]; first compound 8 µM
  relative viability: 0.705
[3]; first compound 0.08 µM
  relative viability: 1.44
[3]; first compound 0.8 µM
  relative viability: 1.08
[3]; first compound 2.53 µM
  relative viability: 1.48
[3]; first compound 8 µM
  relative viability: 1.17
[4]; first compound 0.08 µM
  relative viability: 0.451
[4]; first compound 0.8 µM
  relative viability: 0.564
[4]; first compound 2.53 µM
  relative viability: 0.472
[4]; first compound 8 µM
  relative viability: 0.427
[5]; first compound 0.08 µM
  relative viability: 1
[5]; first compound 0.8 µM
  relative viability: 0.844
[5]; first compound 2.53 µM
  relative viability: 0.943
[5]; first compound 8 µM
  relative viability: 0.793
[6]; first compound 0.08 µM
  relative viability: 0.957
[6]; first compound 0.8 µM
  relative viability: 0.926
[6]; first compound 2.53 µM
  relative viability: 0.857
[6]; first compound 8 µM
  relative viability: 0.82
[7]; first compound 0.08 µM
  relative viability: 0.896
[7]; first compound 0.8 µM
  relative viability: 1.26
[7]; first compound 2.53 µM
  relative viability: 1.7
[7]; first compound 8 µM
  relative viability: 1.21
[8]; first compound 0.08 µM
  relative viability: 0.894
[8]; first compound 0.8 µM
  relative viability: 1
[8]; first compound 2.53 µM
  relative viability: 1.07
[8]; first compound 8 µM
  relative viability: 0.782
[9]; first compound 0.08 µM
  relative viability: 1.13
[9]; first compound 0.8 µM
  relative viability: 1.22
[9]; first compound 2.53 µM
  relative viability: 1.32
[9]; first compound 8 µM
  relative viability: 1.24
[10]; first compound 0.08 µM
  relative viability: 0.784
[10]; first compound 0.8 µM
  relative viability: 0.868
[10]; first compound 2.53 µM
  relative viability: 0.778
[10]; first compound 8 µM
  relative viability: 0.622
[11]; first compound 0.08 µM
  relative viability: 0.771
[11]; first compound 0.8 µM
  relative viability: 0.803
[11]; first compound 2.53 µM
  relative viability: 0.826
[11]; first compound 8 µM
  relative viability: 0.829
[12]; first compound 0.08 µM
  relative viability: 0.874
[12]; first compound 0.8 µM
  relative viability: 0.995
[12]; first compound 2.53 µM
  relative viability: 0.961
[12]; first compound 8 µM
  relative viability: 1.02
[13]; first compound 0.08 µM
  relative viability: 0.666
[13]; first compound 0.8 µM
  relative viability: 0.948
[13]; first compound 2.53 µM
  relative viability: 0.925
[13]; first compound 8 µM
  relative viability: 0.835
[14]; first compound 0.08 µM
  relative viability: 1.08
[14]; first compound 0.8 µM
  relative viability: 1.18
[14]; first compound 2.53 µM
  relative viability: 1.17
[14]; first compound 8 µM
  relative viability: 0.974
[15]; first compound 0.08 µM
  relative viability: 1.09
[15]; first compound 0.8 µM
  relative viability: 1.09
[15]; first compound 2.53 µM
  relative viability: 0.846
[15]; first compound 8 µM
  relative viability: 0.997
[16]; first compound 0.08 µM
  relative viability: 0.615
[16]; first compound 0.8 µM
  relative viability: 0.785
[16]; first compound 2.53 µM
  relative viability: 0.724
[16]; first compound 8 µM
  relative viability: 0.801
[17]; first compound 0.08 µM
  relative viability: 1.02
[17]; first compound 0.8 µM
  relative viability: 1.07
[17]; first compound 2.53 µM
  relative viability: 1.04
[17]; first compound 8 µM
  relative viability: 1.06
[18]; first compound 0.08 µM
  relative viability: 0.975
[18]; first compound 0.8 µM
  relative viability: 1.24
[18]; first compound 2.53 µM
  relative viability: 1.05
[18]; first compound 8 µM
  relative viability: 1.01
[19]; first compound 0.08 µM
  relative viability: 0.901
[19]; first compound 0.8 µM
  relative viability: 1.22
[19]; first compound 2.53 µM
  relative viability: 1.07
[19]; first compound 8 µM
  relative viability: 1.16
[20]; first compound 0.08 µM
  relative viability: 1.22
[20]; first compound 0.8 µM
  relative viability: 1.18
[20]; first compound 2.53 µM
  relative viability: 1.4
[20]; first compound 8 µM
  relative viability: 1.36
[21]; first compound 0.08 µM
  relative viability: 0.437
[21]; first compound 0.8 µM
  relative viability: 0.579
[21]; first compound 2.53 µM
  relative viability: 0.431
[21]; first compound 8 µM
  relative viability: 0.426
[22]; first compound 0.08 µM
  relative viability: 1.06
[22]; first compound 0.8 µM
  relative viability: 1.01
[22]; first compound 2.53 µM
  relative viability: 1.08
[22]; first compound 8 µM
  relative viability: 0.959
[23]; first compound 0.08 µM
  relative viability: 0.855
[23]; first compound 0.8 µM
  relative viability: 0.843
[23]; first compound 2.53 µM
  relative viability: 0.988
[23]; first compound 8 µM
  relative viability: 0.837
